These results are taken from US10160755B2 (Plexxikon Inc., priority 2015, dated 2018).

One may read the IC50 as the concentration that inhibits the measured activity by half.

One assay has as its target T1, FLT3-ITD (Homo sapiens, UniProt P36888).
T1 construct: FLT3-ITD; Invitrogen #PV6190
T1 sequence (P36888 1-993): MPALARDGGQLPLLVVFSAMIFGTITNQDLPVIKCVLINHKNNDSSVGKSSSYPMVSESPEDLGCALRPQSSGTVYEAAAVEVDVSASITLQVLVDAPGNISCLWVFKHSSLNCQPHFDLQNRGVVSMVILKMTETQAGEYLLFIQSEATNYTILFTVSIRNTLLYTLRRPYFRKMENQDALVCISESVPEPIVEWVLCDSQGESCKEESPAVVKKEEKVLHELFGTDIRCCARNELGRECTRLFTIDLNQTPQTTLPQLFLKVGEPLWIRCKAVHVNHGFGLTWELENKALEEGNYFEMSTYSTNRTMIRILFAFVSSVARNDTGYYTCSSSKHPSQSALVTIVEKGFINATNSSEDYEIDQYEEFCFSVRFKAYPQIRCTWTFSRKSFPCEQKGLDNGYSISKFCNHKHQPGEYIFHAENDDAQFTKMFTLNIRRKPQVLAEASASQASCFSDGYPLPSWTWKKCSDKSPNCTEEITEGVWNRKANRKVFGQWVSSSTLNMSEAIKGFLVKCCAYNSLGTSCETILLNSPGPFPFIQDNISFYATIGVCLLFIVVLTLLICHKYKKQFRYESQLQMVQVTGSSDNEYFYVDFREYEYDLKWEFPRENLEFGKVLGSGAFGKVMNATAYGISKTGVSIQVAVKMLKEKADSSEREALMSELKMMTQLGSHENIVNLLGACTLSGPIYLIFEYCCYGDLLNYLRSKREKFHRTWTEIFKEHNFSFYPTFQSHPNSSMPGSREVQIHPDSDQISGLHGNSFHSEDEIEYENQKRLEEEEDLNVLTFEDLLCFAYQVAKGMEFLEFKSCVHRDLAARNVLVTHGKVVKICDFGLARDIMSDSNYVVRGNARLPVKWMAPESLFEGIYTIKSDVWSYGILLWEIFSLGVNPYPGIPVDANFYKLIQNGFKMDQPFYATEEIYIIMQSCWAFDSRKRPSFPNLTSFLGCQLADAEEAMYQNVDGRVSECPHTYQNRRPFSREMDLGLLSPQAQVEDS
The experiment in a line: FLT3-ITD biochemical kinase assay (AlphaScreen). Put shortly:
(§1)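 Recombinant kinase, biotin-GG(EEEEY)10EE 30 nM final, ATP 10 μM (D835Y) / 100 μM (ITD). Stop/detect: SA donor beads 20 min RT, then PY20 acceptor beads 60 min RT. AlphaScreen 580 nm signal; IC50.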
For orientation: Bead proximity is the source of the signal in Alpha formats.

A further assay concerns the target T2, FLT3-D835Y (Homo sapiens, UniProt P36888, D835Y).
T2 construct: purchased Invitrogen PV3967
T2 sequence (P36888 27-993 D835Y): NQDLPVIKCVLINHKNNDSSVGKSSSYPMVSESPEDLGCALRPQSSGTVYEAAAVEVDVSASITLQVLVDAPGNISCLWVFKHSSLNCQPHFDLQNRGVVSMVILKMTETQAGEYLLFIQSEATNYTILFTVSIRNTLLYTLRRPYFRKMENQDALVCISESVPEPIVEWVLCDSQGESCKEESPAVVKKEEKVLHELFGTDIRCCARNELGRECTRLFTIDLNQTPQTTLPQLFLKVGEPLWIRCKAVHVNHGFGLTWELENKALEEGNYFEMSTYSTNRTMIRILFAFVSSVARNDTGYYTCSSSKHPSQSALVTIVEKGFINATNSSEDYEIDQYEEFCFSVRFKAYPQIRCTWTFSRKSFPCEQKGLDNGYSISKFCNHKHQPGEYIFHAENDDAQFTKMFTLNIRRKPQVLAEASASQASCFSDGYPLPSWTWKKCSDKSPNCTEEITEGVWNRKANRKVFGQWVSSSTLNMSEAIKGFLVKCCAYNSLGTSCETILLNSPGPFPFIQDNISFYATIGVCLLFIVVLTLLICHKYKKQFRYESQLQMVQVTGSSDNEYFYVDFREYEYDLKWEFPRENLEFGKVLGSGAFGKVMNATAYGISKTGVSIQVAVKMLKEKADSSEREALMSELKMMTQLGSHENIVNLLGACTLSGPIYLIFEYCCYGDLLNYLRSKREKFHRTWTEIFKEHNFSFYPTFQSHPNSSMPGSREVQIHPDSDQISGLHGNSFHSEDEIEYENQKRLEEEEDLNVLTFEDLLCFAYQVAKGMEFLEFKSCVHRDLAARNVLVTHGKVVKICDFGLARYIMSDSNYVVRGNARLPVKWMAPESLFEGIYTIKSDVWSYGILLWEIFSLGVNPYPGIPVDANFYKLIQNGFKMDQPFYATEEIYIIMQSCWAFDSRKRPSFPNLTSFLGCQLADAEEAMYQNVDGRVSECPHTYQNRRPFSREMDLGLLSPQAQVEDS
The experiment in a line: FLT3-D835Y biochemical kinase assay (AlphaScreen). The essentials:
as §1

Turning to `COc1cc(C#Cc2cnc3[nH]cc(-c4ccc5ncn(C6CCCNC6)c5c4)c3n2)ccn1` (stereo not drawn) [P-280, 2-((2-methoxypyridin-4-yl)ethynyl)-7-(1-(piperidin-3-yl)-1H-benzo[d]imidazol-6-yl)-5H-pyrrolo[2,3-b]pyrazine], the IC50 against FLT3-ITD and against FLT3-D835Y was 0.0001 to 1 µM each time.

For the molecule `c1cc(N2CCOCC2)ncc1-c1cnc2[nH]cc(-c3ccc4ncn(C5CCCNC5)c4c3)c2n1` (stereo not drawn) [P-325, 4-[5-[7-[3-(3-piperidyl)benzimidazol-5-yl]-5H-pyrrolo[2,3-b]pyrazin-2-yl]-2-pyridyl]morpholine], the IC50 at FLT3-ITD and on FLT3-D835Y was 0.0001 to 1 µM each time.

With `c1cc(-c2cnc3[nH]cc(-c4ccc5ncn(C6CCCNC6)c5c4)c3c2)cc(N2CCOCC2)c1` (stereo not drawn) [P-317, 4-[3-[3-[3-(3-piperidyl)benzimidazol-5-yl]-1H-pyrrolo[2,3-b]pyridin-5-yl]phenyl]morpholine], the half-maximal inhibitory concentration (IC50) at FLT3-ITD and at FLT3-D835Y was 0.0001 to 1 µM in each case.

In the case of `CC(C)(C)n1cnc2ccc(-c3c[nH]c4ncc(-c5ccc(N6CCCCC6)cc5)nc34)cc21` [P-345, 7-(3-tert-butylbenzimidazol-5-yl)-2-[4-(1-piperidyl)phenyl]-5H-pyrrolo[2,3-b]pyrazine], the IC50 on FLT3-ITD and on FLT3-D835Y was 0.0001 to 1 µM throughout.

As to `CN1CCN(c2ccc(-c3cnc4[nH]cc(-c5ccc6ncn(C7CCCNC7)c6c5)c4n3)cc2)CC1` (stereo not drawn) [P-344, 2-[4-(4-methylpiperazin-1-yl)phenyl]-7-[3-(3-piperidyl)benzimidazol-5-yl]-5H-pyrrolo[2,3-b]pyrazine], the IC50 on FLT3-ITD and at FLT3-D835Y was 0.0001 to 1 µM in each case.

For `CCN1CCN(c2ccc(-c3cnc4[nH]cc(-c5ccc6ncn(C7CCCNC7)c6c5)c4n3)cc2)CC1` (stereo not drawn) [P-359, 2-[4-(4-ethylpiperazin-1-yl)phenyl]-7-[3-(3-piperidyl)benzimidazol-5-yl]-5H-pyrrolo[2,3-b]pyrazine], the IC50 on FLT3-ITD and at FLT3-D835Y was 0.0001 to 1 µM in each case.

`O=S1(=O)CCCN1c1cc(-c2cnc3[nH]cc(-c4ccc5ncn(C6CCCNC6)c5c4)c3c2)ccn1` (stereo not drawn) [P-311, 2-[4-[3-[3-(3-piperidyl)benzimidazol-5-yl]-1H-pyrrolo[2,3-b]pyridin-5-yl]-2-pyridyl]-1,2-thiazolidine 1,1-dioxide]: the IC50 on FLT3-ITD and against FLT3-D835Y was 0.0001 to 1 µM each time.

`c1cc(-c2cnc3[nH]cc(-c4ccc5ncn(C6CCCNC6)c5c4)c3n2)cc(N2CCCCC2)n1` (stereo not drawn) [P-339, 7-[3-(3-piperidyl)benzimidazol-5-yl]-2-[2-(1-piperidyl)-4-pyridyl]-5H-pyrrolo[2,3-b]pyrazine]: the IC50 against FLT3-ITD and at FLT3-D835Y was 0.0001 to 1 µM in each case.

For the molecule `Cc1ncc(C#Cc2cnc3[nH]cc(-c4ccc5ncn(C(C)(C)C)c5c4)c3n2)cn1` [P-284, 7-(3-tert-butylbenzimidazol-5-yl)-2-[2-(2-methylpyrimidin-5-yl)ethynyl]-5H-pyrrolo[2,3-b]pyrazine], the IC50 against FLT3-ITD and against FLT3-D835Y was 0.0001 to 1 µM throughout.

Turning to `FC(F)(F)Cn1cc(-c2cnc3[nH]cc(-c4ccc5ncn(C6CCCNC6)c5c4)c3c2)cn1` (stereo not drawn) [P-275, 1-(3-piperidyl)-6-[5-[1-(2,2,2-trifluoroethyl)pyrazol-4-yl]-1H-pyrrolo[2,3-b]pyridin-3-yl]benzimidazole], the IC50 on FLT3-ITD and at FLT3-D835Y was 0.0001 to 1 µM each time.

With `COc1cc(-c2cnc3[nH]cc(-c4ccc5ncn(C6(C(F)(F)F)CC6)c5c4)c3n2)ccn1` [P-312, 2-(2-methoxy-4-pyridyl)-7-[3-[1-(trifluoromethyl)cyclopropyl]benzimidazol-5-yl]-5H-pyrrolo[2,3-b]pyrazine], the IC50 at FLT3-ITD and against FLT3-D835Y was 0.0001 to 1 µM in each case.

For the molecule `CCN1CCN(c2cc(-c3cnc4[nH]cc(-c5ccc6ncn(C(C)(C)C)c6c5)c4n3)ccn2)CC1` [P-328, 7-(3-tert-butylbenzimidazol-5-yl)-2-[2-(4-ethylpiperazin-1-yl)-4-pyridyl]-5H-pyrrolo[2,3-b]pyrazine], the IC50 against FLT3-ITD and on FLT3-D835Y was 0.0001 to 1 µM each time.

In the case of `CC(C)(C)n1cnc2ccc(-c3c[nH]c4nnc(Cl)cc34)cc21` [P-314, 5-(3-tert-butylbenzimidazol-5-yl)-3-chloro-7H-pyrrolo[2,3-c]pyridazine], the IC50 on FLT3-ITD and on FLT3-D835Y was 0.0001 to 1 µM each time.

As to `COc1cc(-c2cnc3[nH]cc(-c4ccc5ncn(C(C)(C)C)c5c4)c3c2)c(OC)nn1` [P-292, 1-tert-butyl-6-[5-(3,6-dimethoxypyridazin-4-yl)-1H-pyrrolo[2,3-b]pyridin-3-yl]benzimidazole], the IC50 against FLT3-ITD and on FLT3-D835Y was 0.0001 to 1 µM throughout.

As for `O=S1(=O)CCCN1c1cc(-c2cnc3[nH]cc(-c4ccc5ncn(C6CCCNC6)c5c4)c3n2)ccn1` (stereo not drawn) [P-295, 2-[4-[7-[3-(3-piperidyl)benzimidazol-5-yl]-5H-pyrrolo[2,3-b]pyrazin-2-yl]-2-pyridyl]-1,2-thiazolidine 1,1-dioxide], the IC50 on FLT3-ITD and on FLT3-D835Y was 0.0001 to 1 µM in each case.

As for `CCN1CCN(c2ccc(-c3cnc4[nH]cc(-c5ccc6ncn(C7CCCNC7)c6c5)c4n3)cn2)CC1` (stereo not drawn) [P-366, 2-[6-(4-ethylpiperazin-1-yl)-3-pyridyl]-7-[3-(3-piperidyl)benzimidazol-5-yl]-5H-pyrrolo[2,3-b]pyrazine], the half-maximal inhibitory concentration (IC50) on FLT3-ITD and against FLT3-D835Y was 0.0001 to 1 µM in each case.

`Cc1ncc(-c2cnc3[nH]cc(-c4ccc5ncn(C(C)(C)C)c5c4)c3n2)cn1` [P-289, 7-(3-tert-butylbenzimidazol-5-yl)-2-(2-methylpyrimidin-5-yl)-5H-pyrrolo[2,3-b]pyrazine]: the IC50 against FLT3-ITD and on FLT3-D835Y was 0.0001 to 1 µM throughout.

With `CC(C)(C)n1cnc2ccc(-c3c[nH]c4ncc(-c5ccnc(C#N)c5)nc34)cc21` [P-301, 4-[7-(3-tert-butylbenzimidazol-5-yl)-5H-pyrrolo[2,3-b]pyrazin-2-yl]pyridine-2-carbonitrile], the IC50 at FLT3-D835Y lay within 0.0001 to 1 µM.

`CC(C)(C)n1cnc2ccc(-c3c[nH]c4ncc(-c5cnc(F)c(F)c5)nc34)cc21` [P-390, 7-(3-tert-butylbenzimidazol-5-yl)-2-(5,6-difluoro-3-pyridyl)-5H-pyrrolo[2,3-b]pyrazine] gave an IC50 on FLT3-ITD of 1 to 10 µM.

On to `COc1ncc(-c2cnc3[nH]cc(-c4ccc5ncn(C(C)(C)C)c5c4)c3n2)cc1C#N` [P-405, 5-[7-(3-tert-butylbenzimidazol-5-yl)-5H-pyrrolo[2,3-b]pyrazin-2-yl]-2-methoxy-pyridine-3-carbonitrile], for which the IC50 at FLT3-ITD is 0.0001 to 1 µM.

`COc1cnc2[nH]cc(-c3ccc4ncn(C(C)(C)C)c4c3)c2c1` [P-074, 1-tert-butyl-6-(5-methoxy-1H-pyrrolo[2,3-b]pyridin-3-yl)benzimidazole] gave an IC50 against FLT3-D835Y of 0.0001 to 1 µM.

`COc1cnc2[nH]cc(-c3ccc4ncn(-c5ccccc5)c4c3)c2c1` [P-068, 5-methoxy-3-(3-phenylbenzimidazol-5-yl)-1H-pyrrolo[2,3-b]pyridine] had an IC50 against FLT3-D835Y of 0.0001 to 1 µM.
